In ChEMBL document CHEMBL4420076, “Amylin and calcitonin receptor agonist” (2017):
Numbered stars: 1 amine (or outer) side, 2 acyl side, 3 side chain; on linkers, the order of the positions; unused ones are H or OH. Peptide text beside a SMILES is read from it. * marks the point of attachment. C20 diacid = O=C(O)CCCCCCCCCCCCCCCCCCC(=O)*; C18 diacid = O=C(O)CCCCCCCCCCCCCCCCC(=O)*; γGlu = O=C(O)[C@H](CCC(=O)[*:2])N[*:1]

Columns and labels:
[1] = molecular target: T1, Amylin receptor AMY3; CALCR/RAMP3 (Homo sapiens, UniProt O60896+P30988); assay: Agonist activity at human amylin receptor expressed in BHK570 cells co-expressing RAMP3 assessed as increase in intracellular cAMP concentration incubated for 3 hrs in absence of albumin by CRE luciferase reporter gene assay; assay type: functional, cell-based
T1 sequence (P30988 whole entry): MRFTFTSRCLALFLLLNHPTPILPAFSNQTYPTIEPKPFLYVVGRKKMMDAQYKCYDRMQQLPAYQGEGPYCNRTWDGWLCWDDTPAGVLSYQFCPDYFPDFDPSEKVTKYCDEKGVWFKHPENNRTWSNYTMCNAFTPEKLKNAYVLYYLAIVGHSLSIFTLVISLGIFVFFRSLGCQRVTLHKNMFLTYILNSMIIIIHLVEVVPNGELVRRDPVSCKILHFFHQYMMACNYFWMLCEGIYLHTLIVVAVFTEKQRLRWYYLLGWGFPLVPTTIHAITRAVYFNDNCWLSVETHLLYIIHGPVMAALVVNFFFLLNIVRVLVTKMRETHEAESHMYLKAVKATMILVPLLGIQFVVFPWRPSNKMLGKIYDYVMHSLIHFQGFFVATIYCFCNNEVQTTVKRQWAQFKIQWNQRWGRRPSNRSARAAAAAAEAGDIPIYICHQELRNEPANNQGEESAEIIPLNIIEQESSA
T1 sequence (O60896 whole entry): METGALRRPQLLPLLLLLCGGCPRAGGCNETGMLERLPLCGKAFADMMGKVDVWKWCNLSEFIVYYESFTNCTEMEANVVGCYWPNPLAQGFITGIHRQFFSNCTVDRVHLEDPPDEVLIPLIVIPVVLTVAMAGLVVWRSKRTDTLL

Calcitonin receptor [2] = molecular target: T2, Calcitonin receptor (Homo sapiens, UniProt P30988); assay: Agonist activity at human calcitonin receptor expressed in BHK570 cells assessed as increase in intracellular cAMP concentration incubated for 3 hrs in absence of albumin by CRE luciferase reporter gene assay; assay type: functional, cell-based
T2 sequence (P30988 whole entry): T1 sequence (P30988 whole entry)

[3] = molecular target: T1, Amylin receptor AMY3; CALCR/RAMP3; assay: Agonist activity at human amylin receptor expressed in BHK570 cells co-expressing RAMP3 assessed as increase in intracellular cAMP concentration incubated for 3 hrs in presence of 10% FBS by CRE luciferase reporter gene assay; assay type: functional, cell-based
Calcitonin receptor [4] = molecular target: T2, Calcitonin receptor; assay: Agonist activity at human calcitonin receptor expressed in BHK570 cells assessed as increase in intracellular cAMP concentration incubated for 3 hrs in presence of 10% FBS by CRE luciferase reporter gene assay; assay type: functional, cell-based
[5] = Solubility in 100 mM glycylglycine buffer at pH 3.0 incubated for 18 hrs by UPLC analysis; assay type: physicochemical
[6] = Solubility in 100 mM glycylglycine buffer at pH 4.0 incubated for 18 hrs by UPLC analysis; assay type: physicochemical
[7] = Solubility in 100 mM bistrispropane buffer at pH 6.0 incubated for 18 hrs by UPLC analysis; assay type: physicochemical
[8] = Solubility in 100 mM glycylglycine buffer at pH 5.0 incubated for 18 hrs by UPLC analysis; assay type: physicochemical
[9] = Solubility in 100 mM bistrispropane buffer at pH 6.5 incubated for 18 hrs by UPLC analysis; assay type: physicochemical
[10] = Solubility in 100 mM bistrispropane buffer at pH 7.0 incubated for 18 hrs by UPLC analysis; assay type: physicochemical
[11] = Solubility in 100 mM bistrispropane buffer at pH 7.5 incubated for 18 hrs by UPLC analysis; assay type: physicochemical
[12] = Solubility in 100 mM bistrispropane buffer at pH 8.0 incubated for 18 hrs by UPLC analysis; assay type: physicochemical
[13] = molecular target: T1, Amylin receptor AMY3; CALCR/RAMP3; assay: Displacement of [125I]-labeled rat amylin from human amylin receptor expressed in BHK tkts13 whole cells co-expressing RAMP3 incubated for 60 mins by scintillation proximity assay; assay type: cell-based

SMILES | EC50 [1] [nM] | EC50 (Calcitonin receptor [2]) [nM] | EC50 [3] [nM] | EC50 (Calcitonin receptor [4]) [nM] | solubility at 18 h [5] [µM] | solubility at 18 h [6] [µM] | solubility at 18 h [7] [µM] | solubility at 18 h [8] [µM] | solubility at 18 h [9] [µM] | solubility at 18 h [10] [µM] | solubility at 18 h [11] [µM] | solubility at 18 h [12] [µM] | IC50 [13] [nM]
CC(C)C[C@H](NC(=O)[C@H](C)NC(=O)[C@H](C)NC(=O)[C@@H](NC(=O)[C@H](CO)NC(=O)[C@H](CC(C)C)NC(=O)[C@H](CCC(=O)O)NC(=O)[C@H](CO)NC(=O)[C@H](C)NC(=O)CC[C@H](NC(=O)CCCCCCCCCCCCCCCCC(=O)O)C(=O)O)[C@@H](C)O)C(=O)NCC(=O)N[C@@H](CCCNC(=N)N)C(=O)N[C@@H](CC(C)C)C(=O)N[C@@H](CO)C(=O)N[C@@H](C)C(=O)N[C@@H](CCC(=O)O)C(=O)N[C@@H](CC(C)C)C(=O)N[C@@H](Cc1cnc[nH]1)C(=O)N[C@@H](CCC(=O)O)C(=O)N[C@@H](CC(C)C)C(=O)N[C@@H](C)C(=O)N[C@H](C(=O)N[C@@H](CC(C)C)C(=O)N1CCC[C@H]1C(=O)N[C@@H](CCCNC(=N)N)C(=O)N[C@H](C(=O)N[C@@H](CCC(=O)O)C(=O)N[C@H](C(=O)NCC(=O)N[C@@H](CO)C(=O)N1CCC[C@H]1C(=O)N[C@@H](CO)C(=O)N1CCC[C@H]1C(N)=O)[C@@H](C)O)[C@@H](C)O)[C@@H](C)O ({C18 diacid-γGlu}-ASELSTAALGRLSAELHELATLPRTETGSPSP-NH2) | 0.013 | 0.008 | 0.039 | 0.019 | ≥ 200 | ≥ 200 | ≥ 200 | ≥ 200 | ≥ 200 | ≥ 200 | ≥ 200 | ≥ 200 | –
CC(C)C[C@H](NC(=O)[C@H](CCCNC(=N)N)NC(=O)CNC(=O)[C@H](CC(C)C)NC(=O)[C@@H](NC(=O)[C@H](C)NC(=O)[C@@H](NC(=O)[C@@H](NC(=O)[C@H](CC(C)C)NC(=O)[C@H](CCC(=O)O)NC(=O)[C@H](CO)NC(=O)[C@H](C)NC(=O)CC[C@H](NC(=O)CCCCCCCCCCCCCCCCC(=O)O)C(=O)O)[C@@H](C)O)[C@@H](C)O)C(C)C)C(=O)N[C@@H](CCC(=O)O)C(=O)N[C@@H](C)C(=O)N[C@@H](CCC(=O)O)C(=O)N[C@@H](CC(C)C)C(=O)N[C@@H](Cc1cnc[nH]1)C(=O)N[C@@H](CCC(=O)O)C(=O)N[C@@H](CC(C)C)C(=O)N[C@H](C(=O)N[C@H](C(=O)N[C@@H](CC(C)C)C(=O)N1CCC[C@H]1C(=O)N[C@@H](CCCNC(=N)N)C(=O)N[C@H](C(=O)N[C@@H](CCC(=O)O)C(=O)N[C@H](C(=O)NCC(=O)N[C@H](C(=O)NCC(=O)N[C@H](C(=O)N1CCC[C@H]1C(N)=O)[C@@H](C)O)[C@@H](C)O)[C@@H](C)O)[C@@H](C)O)[C@@H](C)O)[C@@H](C)O ({C18 diacid-γGlu}-ASELTTAVLGRLEAELHELTTLPRTETGTGTP-NH2) | – | 0.066 | – | 0.031 | ≥ 200 | ≥ 200 | ≥ 200 | ≥ 200 | ≥ 200 | ≥ 200 | ≥ 200 | ≥ 200 | 19.7
CC(C)C[C@H](NC(=O)[C@H](C)NC(=O)[C@H](C)NC(=O)[C@@H](NC(=O)[C@H](CO)NC(=O)[C@H](CC(C)C)NC(=O)[C@H](CCC(=O)O)NC(=O)[C@H](CO)NC(=O)[C@H](C)NC(=O)CC[C@H](NC(=O)CCCCCCCCCCCCCCCCCCC(=O)O)C(=O)O)[C@@H](C)O)C(=O)NCC(=O)N[C@@H](CCCNC(=N)N)C(=O)N[C@@H](CC(C)C)C(=O)N[C@@H](CO)C(=O)N[C@@H](C)C(=O)N[C@@H](CCC(=O)O)C(=O)N[C@@H](CC(C)C)C(=O)N[C@@H](Cc1cnc[nH]1)C(=O)N[C@@H](CCC(=O)O)C(=O)N[C@@H](CC(C)C)C(=O)N[C@@H](C)C(=O)N[C@H](C(=O)N[C@@H](CC(C)C)C(=O)N1CCC[C@H]1C(=O)N[C@@H](CCCNC(=N)N)C(=O)N[C@H](C(=O)N[C@@H](CCC(=O)O)C(=O)N[C@H](C(=O)NCC(=O)N[C@H](C(=O)NCC(=O)N[C@H](C(=O)N1CCC[C@H]1C(N)=O)[C@@H](C)O)[C@@H](C)O)[C@@H](C)O)[C@@H](C)O)[C@@H](C)O ({C20 diacid-γGlu}-ASELSTAALGRLSAELHELATLPRTETGTGTP-NH2) | 0.05 | 0.045 | – | 0.056 | ≥ 200 | ≥ 200 | ≥ 200 | ≥ 200 | ≥ 200 | ≥ 200 | ≥ 200 | ≥ 200 | 0.606
CC(C)C[C@H](NC(=O)[C@H](C)NC(=O)[C@H](C)NC(=O)[C@@H](NC(=O)[C@H](CO)NC(=O)[C@H](CC(C)C)NC(=O)[C@H](CCC(=O)O)NC(=O)[C@H](CO)NC(=O)[C@H](C)NC(=O)CC[C@H](NC(=O)CCCCCCCCCCCCCCCCCCC(=O)O)C(=O)O)[C@@H](C)O)C(=O)NCC(=O)N[C@@H](CCCNC(=N)N)C(=O)N[C@@H](CC(C)C)C(=O)N[C@@H](CO)C(=O)N[C@@H](CCC(=O)O)C(=O)N[C@@H](CCC(=O)O)C(=O)N[C@@H](CC(C)C)C(=O)N[C@@H](Cc1cnc[nH]1)C(=O)N[C@@H](CCC(=O)O)C(=O)N[C@@H](CC(C)C)C(=O)N[C@@H](C)C(=O)N[C@H](C(=O)N[C@@H](CC(C)C)C(=O)N1CCC[C@H]1C(=O)N[C@@H](CCCNC(=N)N)C(=O)N[C@H](C(=O)N[C@@H](CCC(=O)O)C(=O)N[C@H](C(=O)NCC(=O)N[C@@H](CO)C(=O)NCC(=O)N[C@@H](CO)C(=O)N1CCC[C@H]1C(N)=O)[C@@H](C)O)[C@@H](C)O)[C@@H](C)O ({C20 diacid-γGlu}-ASELSTAALGRLSEELHELATLPRTETGSGSP-NH2) | 0.041 | 0.025 | 0.085 | – | ≥ 200 | ≥ 200 | ≥ 200 | ≥ 200 | ≥ 200 | ≥ 200 | ≥ 200 | ≥ 200 | –
CC(C)C[C@H](NC(=O)[C@H](C)NC(=O)[C@H](C)NC(=O)[C@@H](NC(=O)[C@H](CO)NC(=O)[C@H](CC(C)C)NC(=O)[C@H](CCC(=O)O)NC(=O)[C@H](CO)NC(=O)[C@H](C)NC(=O)[C@H](C)NC(=O)[C@H](CCC(=O)O)NC(=O)CC[C@H](NC(=O)CCCCCCCCCCCCCCCCCCC(=O)O)C(=O)O)[C@@H](C)O)C(=O)NCC(=O)N[C@@H](CCCNC(=N)N)C(=O)N[C@@H](CC(C)C)C(=O)N[C@@H](CO)C(=O)N[C@@H](C)C(=O)N[C@@H](CCC(=O)O)C(=O)N[C@@H](CC(C)C)C(=O)N[C@@H](Cc1cnc[nH]1)C(=O)N[C@@H](CCC(=O)O)C(=O)N[C@@H](CC(C)C)C(=O)N[C@@H](C)C(=O)N[C@H](C(=O)N[C@@H](Cc1ccc(O)cc1)C(=O)N1CCC[C@H]1C(=O)N[C@@H](CCCNC(=N)N)C(=O)N[C@H](C(=O)N[C@@H](CCC(=O)O)C(=O)N[C@H](C(=O)NCC(=O)N[C@@H](CO)C(=O)NCC(=O)N[C@@H](CO)C(=O)N1CCC[C@H]1C(N)=O)[C@@H](C)O)[C@@H](C)O)[C@@H](C)O ({C20 diacid-γGlu}-EAASELSTAALGRLSAELHELATYPRTETGSGSP-NH2) | 0.017 | 0.015 | – | 0.113 | ≥ 200 | ≥ 200 | ≥ 200 | ≥ 200 | ≥ 200 | ≥ 200 | ≥ 200 | ≥ 200 | 1.92
